Measured values: paper PMC10609219 (Molecules, 2023)

Biological target: T1, DPP-4 (Homo sapiens, UniProt P27487)
T1 construct: gene DPP4
Assay: fluorogenic enzyme inhibition assay (Cayman DPP-4 inhibitor screening kit)
Assay type: biochemical

T1 sequence (P27487 39-766): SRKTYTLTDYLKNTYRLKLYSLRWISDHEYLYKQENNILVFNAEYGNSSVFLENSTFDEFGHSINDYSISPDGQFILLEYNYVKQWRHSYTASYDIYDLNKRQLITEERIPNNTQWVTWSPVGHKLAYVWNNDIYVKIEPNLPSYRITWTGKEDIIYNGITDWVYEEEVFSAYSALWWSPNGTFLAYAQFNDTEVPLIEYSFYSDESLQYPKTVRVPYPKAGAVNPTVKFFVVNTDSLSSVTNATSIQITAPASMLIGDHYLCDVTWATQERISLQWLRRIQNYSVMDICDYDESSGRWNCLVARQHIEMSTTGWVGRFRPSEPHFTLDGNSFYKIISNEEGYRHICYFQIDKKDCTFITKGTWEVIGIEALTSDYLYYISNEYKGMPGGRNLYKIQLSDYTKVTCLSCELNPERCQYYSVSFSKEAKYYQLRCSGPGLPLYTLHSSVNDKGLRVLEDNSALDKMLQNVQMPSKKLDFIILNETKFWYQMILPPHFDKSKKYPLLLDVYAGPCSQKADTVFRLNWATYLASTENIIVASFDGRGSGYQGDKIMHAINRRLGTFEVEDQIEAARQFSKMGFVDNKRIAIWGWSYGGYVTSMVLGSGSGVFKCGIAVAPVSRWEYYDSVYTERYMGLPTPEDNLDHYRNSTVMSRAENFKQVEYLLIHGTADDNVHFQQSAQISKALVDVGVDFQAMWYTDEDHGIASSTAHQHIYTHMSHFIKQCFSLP

O=C(O)/C=C/c1ccc(O)c(O)c1 [caffeic acid, (E)-3-(3,4-dihydroxyphenyl)prop-2-enoic acid]
IC50: 158 ± 11.3 µM
